From EP4759807A1, “PROTEOLYSIS TARGETING CHIMERA COMPOUND FOR DEGRADING IRAK4 AND USE THEREOF” (Shenzhen Zhongge Biological Technology Co., Ltd., priority 2023, dated 2025)
pIC50: −log10 of the molar value. Like-named read-outs stand apart in the source and are kept apart here.

How the values were obtained:
IRAK4 [1] = target: T1, IRAK4 (Homo sapiens, UniProt Q9NWZ3); test: Hibit fluorescence detection of proteolysis (IRAK4-HiBiT in HEK293T cells); assay type: cell-based; parameters: host or cells: HEK293T (ATCC); conditions: for Dmax: HEK-293T; for DC50: IRAK4-HiBiT, HEK293T cells, 24 h
T1 sequence (Q9NWZ3 1-460): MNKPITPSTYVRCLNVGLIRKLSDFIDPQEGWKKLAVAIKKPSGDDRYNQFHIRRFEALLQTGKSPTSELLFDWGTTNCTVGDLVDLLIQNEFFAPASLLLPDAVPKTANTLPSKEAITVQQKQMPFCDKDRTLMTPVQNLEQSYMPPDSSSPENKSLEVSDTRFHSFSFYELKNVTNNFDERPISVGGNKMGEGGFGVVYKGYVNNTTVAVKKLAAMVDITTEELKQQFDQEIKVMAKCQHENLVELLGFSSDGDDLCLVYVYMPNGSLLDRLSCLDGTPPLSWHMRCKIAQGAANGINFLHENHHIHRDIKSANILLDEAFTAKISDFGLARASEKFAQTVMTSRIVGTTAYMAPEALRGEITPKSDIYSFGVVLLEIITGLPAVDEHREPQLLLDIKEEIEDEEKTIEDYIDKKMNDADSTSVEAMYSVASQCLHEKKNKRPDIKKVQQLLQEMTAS
Method in brief: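 Degradation read-out: luminescence from lytic HiBiT detection (15 min, room temperature) after 24 h compound exposure (37 °C, 5% CO2) of HEK293T cells transiently expressing IRAK4 fused to a HiBiT tag. Data fitted to a bell-shaped four-parameter model giving two EC50 values.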

IRAK4 [2] = target: T1, IRAK4; test: WB detection of proteolysis (Western Blot, THP-1 cells); assay type: cell-based; conditions: Western Blot, THP-1 cells, 24 h; for DC50: read-out: DC50; for Dmax: read-out: Dmax
Method in brief: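 IRAK4 level in RIPA lysates read by Western blot with Odyssey imaging; values from bell-shaped non-linear fit with two four-parameter sections (Plateau1, Plateau2, Dip, LogEC50_1/2, nH1/2).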

CYP1A2 = target: T2, CYP1A2 (Homo sapiens, UniProt P05177); test: Inhibitory effect on human liver microsome CYP450 enzyme; assay type: in vitro ADME; conditions: human liver microsomes, substrate Phenacetin
T2 construct: 0.05 mg/mL liver microsomes (BioIVT, IHG) phosphate buffer solution; tissue BioIVT IHG; host or cells: human liver microsomes
T2 sequence (P05177 1-516): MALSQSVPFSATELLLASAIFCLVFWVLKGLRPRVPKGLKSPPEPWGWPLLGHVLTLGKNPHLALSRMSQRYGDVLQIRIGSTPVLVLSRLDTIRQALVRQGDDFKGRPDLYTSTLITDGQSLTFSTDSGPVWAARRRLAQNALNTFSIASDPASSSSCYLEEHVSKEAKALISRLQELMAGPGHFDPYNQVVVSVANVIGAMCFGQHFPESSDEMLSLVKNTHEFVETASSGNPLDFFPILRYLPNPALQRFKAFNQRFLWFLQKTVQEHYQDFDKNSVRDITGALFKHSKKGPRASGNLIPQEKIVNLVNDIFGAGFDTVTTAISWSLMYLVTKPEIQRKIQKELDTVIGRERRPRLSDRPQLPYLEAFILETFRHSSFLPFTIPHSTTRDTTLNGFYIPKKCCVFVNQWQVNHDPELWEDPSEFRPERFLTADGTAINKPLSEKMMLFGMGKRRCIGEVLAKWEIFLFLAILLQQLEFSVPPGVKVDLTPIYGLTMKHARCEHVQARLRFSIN
Method: (§1) In this experiment, the compound, liver microsomes and different CYP isoform enzyme substrates were incubated in a 37°C water bath, the amount of substrate metabolites generated was measured, and the inhibitory effect of the compound of the present disclosure on CYP enzyme was evaluated based on the IC50 value.
(§2) i. The compound was diluted with DMSO (Aladdin, catalog number: D103273-500ml) to concentrations of 0, 0.02, 0.06, 0.2, 0.6, 2 and 6 mM. The positive reference inhibitors for each CYP isoform and their concentrations are shown in Table 4 Table 4 Positive reference inhibitors for CYP isoform enzymes and their concentrations
(§3) ii. Phosphate buffer (sigma: V900050-500G) was used to formulate the substrate solution for each CYP isoform enzyme. Table 5 The substrate and the concentration thereof for CYP isoform enzyme
(§4) iii. Sample incubation. 1 µL of each concentration of the compound and positive reference inhibitor for CYP isoform enzyme were taken and placed into a 96-deep well plate (A-gen: P-1.0-RD-96-S), and 169 µL of 0.05 mg/mL liver microsomes (BioIVT, IHG) phosphate buffer solution (using 0.2 mg/mL liver microsomes for CYP2C19) was added. After uniform mixing, the plate was placed in a 37°C water bath (Shanghai Jinghong Experimental Equipment Co., Ltd., DK-500) with shaking for pre-incubation for 15 min. 10 µL of substrate (adding 1 µL of substrate for CYP3A4-Testosterone) and 20 µL of 10 mM NADPH phosphate buffer solution (MCE, HYF003/CS-4998) were added. After uniform mixing, the plate was incubated in a water bath with shaking for the following time: CYP1A2: 20 min, CYP2C9: 10 min, CYP2C19: 10 min, CYP2D6: 10 min, CYP3A4-Testosterone: 10 min, CYP3A4-Midazolam: 5 min. 400 µL of glacial acetonitrile/methanol (v/v, 1:1) containing an internal standard (500 nM tolbutamide, 5 nM terfenadine) was added to terminate the reaction. After centrifugation at 4000 rpm at 4°C for 40 min, the supernatant was taken and diluted with pure water according to the response of the metabolite of the substrate, and then UPLC-MS/MS (Sciex, Q-Trap 4500) was used for detection to obtain the peak area. The C18 chromatographic column was Kinetex 2.6u C18 100A (50 mm*3 mm).
(§5) The inhibitory effect of the compound on each P450 enzyme in human liver microsomes was calculated as the percentage of reduced metabolite formation compared with the non-inhibitory control (i.e. blank DMSO). The IC50 value of the compound for each P450 enzyme in human liver microsomes was calculated with the logarithm of the remaining activity and the inhibitor concentration using Graphpad Prism software. The calculation equation was as follows: Peak area ratio = compound peak area / internal standard peak area [formula] [formula]
(§6) In Graphpad Prism software, the IC50 value was calculated using the standard four-parameter curve fitting algorithm.

CYP2C9 = target: T3, CYP2C9 (Homo sapiens, UniProt P11712); test: as above; assay type: in vitro ADME; conditions: human liver microsomes, substrate Diclofenac Sodium
T3 construct: 0.05 mg/mL liver microsomes (BioIVT, IHG) phosphate buffer solution; tissue BioIVT IHG; host or cells: human liver microsomes
Method: as §1, §2, §3, §4, §5, §6

CYP2C19 = target: T4, CYP2C19 (Homo sapiens, UniProt P33261); test: as above; assay type: in vitro ADME; conditions: human liver microsomes, substrate Mephenytoin
T4 construct: (using 0.2 mg/mL liver microsomes for CYP2C19); tissue BioIVT IHG; host or cells: human liver microsomes
Method: as §1, §2, §3, §4, §5, §6

CYP3A4 = target: T5, CYP3A4 (Homo sapiens, UniProt P08684); test: as above; assay type: in vitro ADME; conditions: liver microsomes
T5 construct: 0.05 mg/mL liver microsomes (BioIVT, IHG) phosphate buffer solution; tissue BioIVT IHG; host or cells: human liver microsomes
Method: as §1, §2, §3, §4, §5, §6

CYP2D6 = target: T6, CYP2D6 (Homo sapiens, UniProt P10635); test: as above; assay type: in vitro ADME; conditions: human liver microsomes, substrate Dextromethorphan
T6 construct: 0.05 mg/mL liver microsomes (BioIVT, IHG) phosphate buffer solution; tissue BioIVT IHG; host or cells: human liver microsomes
Method: as §1, §2, §3, §4, §5, §6

hERG ion channel = target: T7, hERG ion channel (Homo sapiens, UniProt Q12809); test: Inhibitory effect on hERG ion channels (manual patch clamp); assay type: cell-based; conditions: HEK293 cells stably expressing hERG channels, read-out: hERG (IC50, manupatch)
T7 construct: host or cells: HEK293
Method: In this experiment, the inhibitory effect of the compound on the hERG ion channel was detected by a manual patch clamp electrophysiological method, and the cardiac safety was evaluated based on the single concentration inhibition rate or IC50 of the compound.
The cells used in this experiment were HEK293 cell lines transfected with hERG cDNA and stably expressing hERG channels (#60187, provided by BPS, P3-P23 generations were used for experimental research). The cells was cultured in a medium containing the following components: MEM medium, 10% (v/v) inactivated fetal bovine serum, 1 mM sodium pyruvate, 500 µg geneticin, 0.1 mM non-essential amino acids, 100 U penicillin-streptomycin. HEK293 hERG cells were grown in a culture flask containing the above culture solution and cultured in an incubator at 37°C and 5% CO2. […]
A manual patch clamp system (HEKA EPC-10 signal amplifier and digital conversion system, purchased from HEKA Electronics, Germany) was used to record whole-cell currents in electrophysiological experiments. […] After the hERG current recorded in the above steps reached stabilization under the continuous perfusion of extracellular solution in the recording chamber, different concentrations of the compound to be tested could be perfused until the inhibitory effect of the drug on the hERG current reached a stable state. […]

T5 sequence (P08684 whole entry): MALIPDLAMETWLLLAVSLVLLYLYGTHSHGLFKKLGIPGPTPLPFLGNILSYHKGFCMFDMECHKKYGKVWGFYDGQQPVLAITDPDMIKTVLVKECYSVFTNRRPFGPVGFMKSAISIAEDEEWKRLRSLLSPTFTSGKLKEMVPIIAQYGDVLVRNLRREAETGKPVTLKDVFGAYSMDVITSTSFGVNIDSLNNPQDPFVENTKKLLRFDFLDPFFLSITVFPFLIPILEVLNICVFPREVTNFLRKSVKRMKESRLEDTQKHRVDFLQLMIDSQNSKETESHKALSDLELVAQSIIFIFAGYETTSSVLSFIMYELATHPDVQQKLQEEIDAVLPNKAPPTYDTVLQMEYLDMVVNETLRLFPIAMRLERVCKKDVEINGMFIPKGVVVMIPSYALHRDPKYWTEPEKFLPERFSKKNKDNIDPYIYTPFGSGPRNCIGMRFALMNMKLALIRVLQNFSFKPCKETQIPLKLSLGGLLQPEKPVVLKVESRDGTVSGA
T6 sequence (P10635 whole entry): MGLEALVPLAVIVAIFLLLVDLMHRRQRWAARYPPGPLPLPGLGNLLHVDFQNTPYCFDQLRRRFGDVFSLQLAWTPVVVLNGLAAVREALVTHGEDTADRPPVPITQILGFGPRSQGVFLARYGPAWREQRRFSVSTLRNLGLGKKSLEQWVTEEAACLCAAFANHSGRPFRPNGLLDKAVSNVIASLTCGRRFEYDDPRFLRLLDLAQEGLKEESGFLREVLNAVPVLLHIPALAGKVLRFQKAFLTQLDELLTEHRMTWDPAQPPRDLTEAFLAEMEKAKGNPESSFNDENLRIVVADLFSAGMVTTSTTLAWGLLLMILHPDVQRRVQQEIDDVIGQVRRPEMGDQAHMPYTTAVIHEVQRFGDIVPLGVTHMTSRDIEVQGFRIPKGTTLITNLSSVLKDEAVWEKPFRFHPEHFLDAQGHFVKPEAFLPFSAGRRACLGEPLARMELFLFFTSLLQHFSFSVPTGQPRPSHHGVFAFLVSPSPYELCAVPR
T7 sequence (Q12809 whole entry): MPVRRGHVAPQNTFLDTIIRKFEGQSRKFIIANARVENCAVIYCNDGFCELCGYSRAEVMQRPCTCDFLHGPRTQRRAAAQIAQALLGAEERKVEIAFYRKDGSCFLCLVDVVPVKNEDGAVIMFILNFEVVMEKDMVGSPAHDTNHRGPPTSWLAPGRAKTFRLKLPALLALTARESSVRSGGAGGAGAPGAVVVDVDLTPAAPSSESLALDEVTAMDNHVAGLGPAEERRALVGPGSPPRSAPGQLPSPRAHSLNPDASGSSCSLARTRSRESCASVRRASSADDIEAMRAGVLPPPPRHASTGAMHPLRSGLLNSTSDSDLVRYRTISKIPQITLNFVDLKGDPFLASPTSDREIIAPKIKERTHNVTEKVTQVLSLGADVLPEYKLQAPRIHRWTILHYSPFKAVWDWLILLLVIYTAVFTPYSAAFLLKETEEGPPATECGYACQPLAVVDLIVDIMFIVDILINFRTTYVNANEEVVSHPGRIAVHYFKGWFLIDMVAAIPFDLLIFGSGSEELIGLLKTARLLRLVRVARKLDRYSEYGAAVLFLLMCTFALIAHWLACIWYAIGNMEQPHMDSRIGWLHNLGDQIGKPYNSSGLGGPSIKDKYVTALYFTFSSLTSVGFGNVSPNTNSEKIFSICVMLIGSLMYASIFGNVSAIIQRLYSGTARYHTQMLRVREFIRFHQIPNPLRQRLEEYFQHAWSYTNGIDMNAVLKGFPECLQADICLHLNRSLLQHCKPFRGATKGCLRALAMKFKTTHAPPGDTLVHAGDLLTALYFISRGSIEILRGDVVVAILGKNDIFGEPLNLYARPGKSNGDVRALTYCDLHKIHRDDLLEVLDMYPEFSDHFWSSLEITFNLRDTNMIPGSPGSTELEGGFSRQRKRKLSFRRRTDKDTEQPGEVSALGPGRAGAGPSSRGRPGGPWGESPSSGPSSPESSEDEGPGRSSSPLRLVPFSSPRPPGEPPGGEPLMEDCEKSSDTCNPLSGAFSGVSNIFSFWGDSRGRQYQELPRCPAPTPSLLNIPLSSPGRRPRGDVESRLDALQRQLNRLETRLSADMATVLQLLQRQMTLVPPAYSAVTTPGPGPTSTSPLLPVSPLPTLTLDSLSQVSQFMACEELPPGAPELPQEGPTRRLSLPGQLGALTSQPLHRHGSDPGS
T3 sequence (P11712 whole entry): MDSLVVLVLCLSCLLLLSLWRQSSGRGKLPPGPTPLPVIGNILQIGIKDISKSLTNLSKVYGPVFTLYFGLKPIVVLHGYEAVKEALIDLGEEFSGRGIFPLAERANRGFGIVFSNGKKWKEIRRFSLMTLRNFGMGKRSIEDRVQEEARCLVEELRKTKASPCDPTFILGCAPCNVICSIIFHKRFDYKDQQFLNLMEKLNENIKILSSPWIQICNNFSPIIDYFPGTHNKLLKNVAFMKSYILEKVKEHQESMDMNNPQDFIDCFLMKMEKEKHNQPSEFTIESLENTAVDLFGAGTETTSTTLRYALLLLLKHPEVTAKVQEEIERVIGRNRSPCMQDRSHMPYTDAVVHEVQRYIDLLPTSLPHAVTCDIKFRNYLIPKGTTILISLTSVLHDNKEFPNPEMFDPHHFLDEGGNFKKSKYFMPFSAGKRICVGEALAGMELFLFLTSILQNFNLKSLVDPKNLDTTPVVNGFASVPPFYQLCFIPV
T4 sequence (P33261 whole entry): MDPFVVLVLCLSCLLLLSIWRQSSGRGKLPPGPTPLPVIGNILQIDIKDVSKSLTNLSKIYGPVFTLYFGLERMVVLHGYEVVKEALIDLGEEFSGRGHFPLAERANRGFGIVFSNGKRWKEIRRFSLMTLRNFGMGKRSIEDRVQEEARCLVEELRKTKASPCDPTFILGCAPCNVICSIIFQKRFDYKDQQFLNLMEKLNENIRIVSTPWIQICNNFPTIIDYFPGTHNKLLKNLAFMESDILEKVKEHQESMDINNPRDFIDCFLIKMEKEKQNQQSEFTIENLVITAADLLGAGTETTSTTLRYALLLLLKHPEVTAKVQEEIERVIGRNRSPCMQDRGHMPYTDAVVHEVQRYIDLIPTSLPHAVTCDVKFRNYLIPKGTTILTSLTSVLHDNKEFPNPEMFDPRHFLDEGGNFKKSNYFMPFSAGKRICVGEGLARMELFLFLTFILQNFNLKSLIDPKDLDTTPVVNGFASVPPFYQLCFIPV

| SMILES | Dmax (IRAK4 [1]) [%] | DC50 (IRAK4 [1]) [nM] | DC50 (IRAK4 [2]) [nM] | Dmax (IRAK4 [2]) [%] | IC50 (CYP1A2) [µM] | IC50 (CYP2C9) [µM] | IC50 (CYP2C19) [µM] | IC50 (CYP3A4; substrate Midazolam, read-out: IC50 (µM) CYP3A4-M) [µM] | IC50 (CYP3A4; substrate Testosterone, read-out: IC50 (µM) CYP3A4-T) [µM] | IC50 (CYP2D6) [µM] | pIC50 (hERG ion channel) |
| --- | --- | --- | --- | --- | --- | --- | --- | --- | --- | --- | --- |
| Cn1c(=O)n(C2CCC(=O)NC2=O)c2cccc(N3CCC(N4CCN(C[C@H]5CC[C@H](n6cc(-n7cc(-c8cnn9ccc(N[C@@H]%10CCCC[C@@H]%10O)nc89)nn7)c(C(F)F)n6)CC5)CC4)CC3)c21 (stereo partly drawn) [Example 155] | > 80 | < 0.5 | < 10 | > 70 | – | – | – | – | – | – | – |
| Cn1c(=O)n(C2CCC(=O)NC2=O)c2cccc(N3CCN(C[C@H]4CC[C@H](n5cc(-n6cc(-c7cnn8ccc(N9CCC[C@@H](O)C9)nc78)nn6)c(C(F)F)n5)CC4)CC3)c21 (stereo partly drawn) [Example 243] | > 80 | < 0.5 | < 10 | > 70 | – | – | – | – | – | – | – |
| Cn1c(=O)n(C2CCC(=O)NC2=O)c2cccc(N3CCN(C4CCN(C[C@H]5CC[C@H](n6cc(-n7cc(-c8cnn9ccc(N%10CCC[C@@H](O)C%10)nc89)nn7)c(C(F)F)n6)CC5)CC4)CC3)c21 (stereo partly drawn) [Example 245] | > 80 | < 0.5 | < 10 | > 70 | – | – | – | – | – | – | – |
| Cn1c(=O)n(C2CCC(=O)NC2=O)c2cccc(N3CCC4(CCN(C[C@H]5CC[C@H](n6cc(-n7cc(-c8cnn9ccc(N%10CCC[C@@H](O)C%10)nc89)nn7)c(C(F)F)n6)CC5)C4)CC3)c21 (stereo partly drawn) [Example 248] | > 80 | < 0.5 | < 10 | > 70 | – | – | – | – | – | – | – |
| C[C@H]1CN(c2cccc3c2n(C)c(=O)n3C2CCC(=O)NC2=O)CCN1C[C@H]1CC[C@H](n2cc(-n3cc(-c4cnn5ccc(N6CCC[C@H](N)C6)nc45)nn3)c(C(F)F)n2)CC1 (stereo partly drawn) [Example 285] | > 80 | < 0.5 | > 30 | 60 to 70 | – | – | – | – | – | – | – |
| Cn1c(=O)n(C2CCC(=O)NC2=O)c2cccc(C#CCOC3CCN(C[C@H]4CC[C@H](n5cc(NC(=O)c6cnn7ccc(N8C[C@H]9C[C@@H]8CO9)nc67)c(C(F)F)n5)CC4)CC3)c21 (stereo partly drawn) [KT474, reference compound] | – | – | – | – | > 30 | 9.61 | 3.81 | 15.1 | > 30 | > 30 | 5.58 |
